{"source": "paper PMC12402836", "about": "“Taste Profile and Relative Bioavailability of Tovorafenib Powder for Oral Suspension and Food Effect of the Tovorafenib Tablet in Healthy Participants” (Clinical Pharmacology in Drug Development, 2025)", "key": {"[1]": {"assay": "Relative bioavailability and food-effect pharmacokinetics (Part 2, 3-period crossover)", "type": "in vivo, human", "method": "In Part 2 of the study, 12 participants were randomized to 1 of 3 sequences (T[fast]S[fast]T[fed], S[fast]T[fed]T[fast], and T[fed]T[fast]S[fast]) (Figure S1B). In each treatment period, tovorafenib was administered on Day 1 as a tablet under fasted (T[fast]), as PfOS under fasted (S[fast]), or as a tablet after a high‐fat meal (T[fed]). Tovorafenib was administered in the morning after an overnight fast of 10 hours or more. For treatment groups T[fast] and S[fast], tovorafenib was given under fasted conditions (ie, no breakfast), while for the T[fed] group, it was administered 30 minutes after the start of a high‐fat meal. A total of 240 mL of water was administered with each tovorafenib tablet. For the PfOS, immediately after administration, the dosing vessel was rinsed with water, and participants were required to consume the rinse solution and additional water up to a total volume of 240 mL (including the dosing volume and volume used to rinse the dosing vessel). If needed, additional water in 50‐mL aliquots was provided and recorded but was not classed as a protocol deviation. Participants were required to fast for 4 hours or more after single‐dose administration of the tovorafenib tablet. The composition of the high‐fat meal consisted of 800‐1000 calories, of which approximately 54% of calories were from fat. To be eligible for dosing, participants were required to consume at least 90% of the meal provided. Intake of fluids was prohibited 1 hour before dosing until 1 hour after dosing, except for fluid consumed with breakfast before dosing and water for tovorafenib tablet intake. Blood samples were collected at regular intervals (see Blood Collection and Processing for PK Analysis in the Pharmacokinetic Assessments section for more details) for PK analysis from before dosing to 120 hours after dosing. […]\nPlasma concentrations of tovorafenib were determined by a validated liquid chromatography with tandem mass spectrometry–based method with a lower limit of quantification of 0.5 ng/mL. […]"}, "[2]": {"assay": "Safety assessments (adverse events, laboratory, vital signs, ECG)", "type": "in vivo", "from_the_text": "Safety evaluations included analysis of AEs, laboratory variables (hematology, clinical chemistry, and urinalysis), vital signs, electrocardiogram, and a physical examination. AEs were coded using the Medical Dictionary for Regulatory Activities Version 24.0. […] Treatment‐emergent AEs (TEAEs) were summarized by frequency, severity, and relatedness to the study drug. TEAE frequency (the number of TEAEs and the number of participants experiencing a TEAE) was tabulated by system organ class and preferred term. In the per‐participant analyses, a participant having the same event more than once was counted only once."}, "[3]": {"parameters": "method as in PMID 37219686", "details": "cited from earlier work"}, "[4]": {"parameters": "method as in PMID 38967715, PMID 39412085", "details": "cited from earlier work"}, "relapsed/refractory pLGG": {"tested_on": "relapsed/refractory pLGG", "parameters": "method as in PMID 39808502, PMID 37978284", "details": "cited from earlier work"}, "[5]": {"tested_on": "aldehyde oxidase and cytochrome P450 (CYP) 2C8, CYP3A, CYP2C9, CYP2C19", "parameters": "method as in PMID 38967715, PMID 39412085", "details": "in vitro, minor contributions from CYP3A; cited from earlier work"}, "[6]": {"tested_on": "CYP2C8, CYP2C9, CYP2C19, CYP3A, CYP1A2, CYP2B6", "parameters": "method as in PMID 38967715, PMID 39412085", "details": "at clinically relevant concentrations, cited from earlier work"}, "[7]": {"tested_on": "breast cancer resistance protein", "parameters": "method as in PMID 38967715, PMID 39412085", "details": "at clinically relevant concentrations; cited from earlier work"}, "[8]": {"details": "20-280 mg every 2 days and 400-800 mg every week"}}, "note": "Like-named read-outs stand apart in the source and are kept apart here."}
{"smiles": "C[C@@H](NC(=O)c1ncnc(N)c1Cl)c1ncc(C(=O)Nc2cc(C(F)(F)F)c(Cl)cn2)s1", "note": "[tovorafenib, 6‐amino‐5‐chloro‐N‐[(1R)‐1‐[5‐[[[5chloro‐4‐(trifluoromethyl)‐2‐pyridinyl]amino]carbonyl]‐2‐thiazolyl]ethyl]‐4‐pyrimidinecarboxamide]", "values": [{"measurement": "half-life", "setting": "[1]; human, plasma, oral, range over regimens, 100 and 300 mg, read-out: Mean t1/2 values from the 3 treatment regimens", "value": "62 to 89.5", "unit": "h"}, {"measurement": "AUC0‐last at 300 mg relative to 100 mg", "setting": "[1]; single doses", "value": "~2.5", "unit": "fold"}, {"measurement": "Cmax at 300 mg relative to 100 mg", "setting": "[1]; single doses", "value": "approximately 2.3 fold"}, {"measurement": "Severity of all AEs", "setting": "[2]; 100 mg dose regimens", "value": "mild"}, {"measurement": "Myalgia, events", "setting": "[2]; 300 mg", "value": 10, "unit": "events"}, {"measurement": "Nonserious musculoskeletal AEs, mild", "setting": "[2]; 300 mg", "value": 5, "unit": "participants"}, {"measurement": "Nonserious musculoskeletal AEs, moderate", "setting": "[2]; 300 mg", "value": 3, "unit": "participants"}, {"measurement": "Nonserious musculoskeletal AEs, severe", "setting": "[2]; 300 mg", "value": 4, "unit": "participants"}, {"measurement": "Moderate AEs", "setting": "[2]; 300 mg dose regimens", "value": 7}, {"measurement": "Participants with nonserious musculoskeletal AEs", "setting": "[2]; 300 mg, Period 1", "value": 12, "unit": "participants"}, {"measurement": "Myalgia, participants reporting", "setting": "[2]; 300 mg, [83.3%]", "value": 10, "unit": "participants"}, {"measurement": "TEAEs reported during Part 1", "setting": "[2]; Part 1, sip and spit of PfOS formulations, n = 12", "value": "no TEAEs"}, {"measurement": "Serious AEs or AEs leading to study drug discontinuation", "setting": "[2]; Part 2", "value": "no serious AEs or AEs leading to study drug discontinuation"}, {"measurement": "TEAEs related to tovorafenib", "setting": "[2]; Part 2, all regimens", "value": 60}, {"measurement": "Total TEAEs", "setting": "[2]; Part 2, all regimens", "value": 71}, {"measurement": "Participants reporting TEAEs", "setting": "[2]; Part 2, all regimens, N = 12", "value": 12, "unit": "participants"}, {"measurement": "Laboratory, vital sign, electrocardiogram, physical examination findings", "setting": "[2]; either part of the study", "value": "no clinically significant abnormal"}, {"measurement": "Dose proportionality of peak plasma concentration and exposure", "setting": "[3]; [8]", "value": "roughly dose‐proportional"}, {"measurement": "half-life", "setting": "[3]; [8]", "value": "approximately 70 hours"}, {"measurement": "Median tmax", "setting": "[3]; after dosing", "value": 3, "unit": "h"}, {"measurement": "Mean t1/2", "setting": "[3]; patients, 600 mg, multiple administrations", "value": "approximately 70 hours"}, {"measurement": "Tovorafenib share of total plasma radioactivity exposure", "setting": "[4]; single 100-mg oral dose of [14C]-tovorafenib", "value": 78.7, "unit": "%"}, {"measurement": "Dose recovered in the urine", "setting": "[4]; single oral radiolabeled dose", "value": 27, "unit": "%"}, {"measurement": "Dose recovered unchanged in the feces", "setting": "[4]; single oral radiolabeled dose", "value": 8.6, "unit": "%"}, {"measurement": "Dose recovered unchanged in the urine", "setting": "[4]; single oral radiolabeled dose", "value": 0.2, "unit": "%"}, {"measurement": "Total radiolabeled dose recovered in the feces", "setting": "[4]; single oral radiolabeled dose", "value": 65, "unit": "%"}, {"measurement": "Overall response rate", "setting": "relapsed/refractory pLGG; 76 evaluable patients, 420 mg/m^2 once weekly (600 mg maximum), independent radiology review, RAPNO low-grade glioma criteria", "value": 51, "unit": "%"}, {"measurement": "Median duration of response", "setting": "relapsed/refractory pLGG; FIREFLY-1 arm 1, 420 mg/m^2 once weekly", "value": 13.8, "unit": "months"}, {"measurement": "Metabolizing enzymes", "setting": "[5]", "value": "primarily metabolized by aldehyde oxidase and cytochrome P450 (CYP) 2C8"}, {"measurement": "Effect on CYP1A2 and CYP2B6", "setting": "[6]", "value": "induces"}, {"measurement": "Effect on CYP2C8, CYP2C9, CYP2C19, and CYP3A", "setting": "[6]; in vitro", "value": "both inhibits and induces"}, {"measurement": "Effect on breast cancer resistance protein", "setting": "[7]", "value": "inhibits"}]}
